Data from article PMC3914206.

Key:
Assay type in all cases: binding
panel of 442 kinases [1] = target: T1, panel of 442 kinases (Homo sapiens, UniProt P49137); conditions: Compound Concentration 10 µM
T1 construct: purchased KINOMEscan
From the text: (§1) We assessed the selectivity of members of this scaffold using the KINOMEscan methodology across a near comprehensive panel of 442 kinases [[18,27]].

panel of 442 kinases [2] = target: T2, panel of 442 kinases (Homo sapiens, UniProt Q07912); conditions: kinase TNK2; compound concentration 10 µM
T2 construct: purchased KINOMEscan
From the text: as §1

panel of 442 kinases [3] = target: T3, panel of 442 kinases (Homo sapiens, UniProt P57058); conditions: Compound Concentration 10 µM
T3 construct: purchased KINOMEscan
T3 sequence (P57058 1-714): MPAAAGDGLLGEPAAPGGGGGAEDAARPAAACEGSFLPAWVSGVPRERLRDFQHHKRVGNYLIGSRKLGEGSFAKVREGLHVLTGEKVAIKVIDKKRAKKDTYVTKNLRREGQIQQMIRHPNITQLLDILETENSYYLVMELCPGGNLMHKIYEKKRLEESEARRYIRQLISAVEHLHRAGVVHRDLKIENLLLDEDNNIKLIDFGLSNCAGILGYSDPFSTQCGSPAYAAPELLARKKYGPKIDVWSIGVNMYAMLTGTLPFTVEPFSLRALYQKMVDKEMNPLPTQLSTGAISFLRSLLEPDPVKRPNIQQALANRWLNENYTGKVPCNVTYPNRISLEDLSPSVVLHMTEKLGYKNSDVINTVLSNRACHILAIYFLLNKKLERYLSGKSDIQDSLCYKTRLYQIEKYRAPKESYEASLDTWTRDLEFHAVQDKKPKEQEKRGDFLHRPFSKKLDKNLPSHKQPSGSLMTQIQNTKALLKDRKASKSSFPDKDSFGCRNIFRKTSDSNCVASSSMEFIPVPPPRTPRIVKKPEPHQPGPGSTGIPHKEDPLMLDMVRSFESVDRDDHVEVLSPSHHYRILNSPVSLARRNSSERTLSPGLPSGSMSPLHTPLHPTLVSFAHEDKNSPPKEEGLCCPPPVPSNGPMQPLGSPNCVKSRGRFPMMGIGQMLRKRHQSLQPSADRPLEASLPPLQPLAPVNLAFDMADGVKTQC
From the text: as §1

T2 sequence (Q07912 whole entry): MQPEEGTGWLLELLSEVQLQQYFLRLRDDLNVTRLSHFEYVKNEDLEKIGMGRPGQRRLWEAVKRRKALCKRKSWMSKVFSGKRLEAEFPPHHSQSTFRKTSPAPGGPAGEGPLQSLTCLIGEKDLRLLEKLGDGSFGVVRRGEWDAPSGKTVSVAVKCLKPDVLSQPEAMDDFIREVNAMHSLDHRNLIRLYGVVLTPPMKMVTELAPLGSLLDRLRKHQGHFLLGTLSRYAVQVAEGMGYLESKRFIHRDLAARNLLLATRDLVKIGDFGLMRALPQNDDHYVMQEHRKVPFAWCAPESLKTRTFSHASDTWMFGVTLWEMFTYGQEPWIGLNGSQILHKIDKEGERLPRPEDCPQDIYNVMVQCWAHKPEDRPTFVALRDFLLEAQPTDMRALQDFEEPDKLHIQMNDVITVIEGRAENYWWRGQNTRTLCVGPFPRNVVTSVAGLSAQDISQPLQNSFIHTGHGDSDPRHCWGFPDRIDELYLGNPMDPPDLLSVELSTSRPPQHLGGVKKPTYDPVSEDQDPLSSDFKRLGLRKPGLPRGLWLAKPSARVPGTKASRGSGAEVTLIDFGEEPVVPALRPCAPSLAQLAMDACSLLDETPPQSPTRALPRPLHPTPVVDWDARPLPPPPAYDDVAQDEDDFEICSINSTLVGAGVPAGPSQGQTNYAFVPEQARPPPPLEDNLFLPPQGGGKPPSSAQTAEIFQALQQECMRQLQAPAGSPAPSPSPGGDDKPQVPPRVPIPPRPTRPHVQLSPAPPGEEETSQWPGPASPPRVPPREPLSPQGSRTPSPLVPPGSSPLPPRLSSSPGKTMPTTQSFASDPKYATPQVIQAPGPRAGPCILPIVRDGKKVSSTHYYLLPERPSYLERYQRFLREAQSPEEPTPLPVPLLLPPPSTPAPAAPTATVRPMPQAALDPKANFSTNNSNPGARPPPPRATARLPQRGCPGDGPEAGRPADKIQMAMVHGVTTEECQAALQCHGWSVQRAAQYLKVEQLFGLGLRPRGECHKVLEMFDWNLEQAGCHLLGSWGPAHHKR
T1 sequence (P49137 whole entry): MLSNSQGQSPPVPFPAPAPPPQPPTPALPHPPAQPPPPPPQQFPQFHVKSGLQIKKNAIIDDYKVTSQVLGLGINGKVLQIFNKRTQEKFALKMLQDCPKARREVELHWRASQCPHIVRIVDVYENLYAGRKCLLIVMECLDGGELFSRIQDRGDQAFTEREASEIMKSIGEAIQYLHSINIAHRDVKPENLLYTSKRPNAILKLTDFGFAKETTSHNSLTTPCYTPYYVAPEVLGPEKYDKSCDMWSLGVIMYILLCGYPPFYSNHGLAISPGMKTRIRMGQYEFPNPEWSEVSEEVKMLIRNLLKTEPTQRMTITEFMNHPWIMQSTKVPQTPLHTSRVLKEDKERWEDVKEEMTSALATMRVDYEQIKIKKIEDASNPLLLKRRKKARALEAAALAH

Structure (SMILES) | KINOMEscan: MAPKAPK2 (panel of 442 kinases [1]) | % Ctrl, TNK2 (panel of 442 kinases [2]) [% Ctrl] | KINOMEscan: HUNK (panel of 442 kinases [3])
COc1cc(C(=O)N2CCC(N3CCN(C)CC3)CC2)ccc1Nc1ncc2c(n1)N(C1CCCC1)c1ccccc1C(=O)N2C [Compound 25, 11-cyclopentyl-2-((2-methoxy-4-(4-(4-methylpiperazin-1-yl)piperidine-1-carbonyl)phenyl)amino)-5-methyl-5H-benzo[e]pyrimido[5,4-b][1,4]diazepin-6(11H)-one] | 100 | 35 | 100
COc1cc(C(=O)N2CCC(N3CCN(C)CC3)CC2)ccc1Nc1ncc2c(n1)N1CCc3cccc(c31)C(=O)N2C [Compound 24] |  | 43 | 
COc1cc(C(=O)N2CCC(N3CCN(C)CC3)CC2)ccc1Nc1ncc2c(n1)N(C)c1ccccc1C(=O)N2C [15 (LRRK2-IN-1)] | 100 | 18 | 100
CCOc1cc(C(=O)N2CCC(N3CCN(C)CC3)CC2)ccc1Nc1ncc2c(n1)N(C1CCCC1)c1ccccc1C(=O)N2C [Compound 26] | 100 | 80 | 53
